Results reported in patent US7582280B2, “Conjugates of antioxidants with metal chelating ligands for use in diagnostic and therapeutic applications” (Bracco International B.V., priority 2000, dated 2009).
Structures can show the parent of a compound that is named as a salt.

Tests used:
[1] = Relaxivity in water (relaxometer); type: physicochemical; conditions: 38° C., IBM PC/20 multispec relaxometer
Description: (§1) Relaxivity of a paramagnetic material in the presence of a large protein such as human serum albumin may be used to study the ability of the compounds of the present invention to bind the target protein. As such, when a small molecule binds a large protein, the relaxivity of the former will increase because of an increase in its rotational correlation time. This increase in relaxivity may be used not only to measure the extent of binding but also to evaluate the viability of the paramagnetic agent as a blood pool contrast medium.
(§2) The relaxivity of the conjugates 22a and 22b in water as well as in water containing a known amount (20%, v/v) of a HSA preparation, known as, seronom (Table 1) were studied.
(§3) The relaxation time of the samples (22a or 22b) in seronom (T1Gd-ligand in seronom) and in water (T1Gd-ligand in water) were measured at 38° C. using an IBM PC/20 multispec relaxometer. The relaxivity of the samples in seronom (r1Gd-ligand in seronom) and in water (r1Gd-ligand in water) were calculated by the following equations: r1Gd-ligand in seronom=(1/T1Gd-ligand in seronom−1/T1seronom)/[Gd-ligand] r1Gd-ligand in water=(1/T1Gd-ligand in water−1/T1water)/[Gd-ligand],
(§4) where [Gd-ligand] is the concentration of the chelate 22a or 22b, which was determined by ICP^11; T1seronom is the relaxation time for pure aqueous seronom; T1water is the relaxation time for pure water.

[2] = target: T1, seronom (HSA preparation) (Homo sapiens, UniProt P02768); experiment: Relaxivity in water containing 20% v/v seronom (HSA preparation); type: physicochemical; conditions: for Relaxivity in aqueous seronom r1Gd-ligand in seronom: 38° C., water containing 20% v/v seronom; for increase in relaxivity in the presence of seronom: seronom versus water
T1 sequence (P02768 25-609): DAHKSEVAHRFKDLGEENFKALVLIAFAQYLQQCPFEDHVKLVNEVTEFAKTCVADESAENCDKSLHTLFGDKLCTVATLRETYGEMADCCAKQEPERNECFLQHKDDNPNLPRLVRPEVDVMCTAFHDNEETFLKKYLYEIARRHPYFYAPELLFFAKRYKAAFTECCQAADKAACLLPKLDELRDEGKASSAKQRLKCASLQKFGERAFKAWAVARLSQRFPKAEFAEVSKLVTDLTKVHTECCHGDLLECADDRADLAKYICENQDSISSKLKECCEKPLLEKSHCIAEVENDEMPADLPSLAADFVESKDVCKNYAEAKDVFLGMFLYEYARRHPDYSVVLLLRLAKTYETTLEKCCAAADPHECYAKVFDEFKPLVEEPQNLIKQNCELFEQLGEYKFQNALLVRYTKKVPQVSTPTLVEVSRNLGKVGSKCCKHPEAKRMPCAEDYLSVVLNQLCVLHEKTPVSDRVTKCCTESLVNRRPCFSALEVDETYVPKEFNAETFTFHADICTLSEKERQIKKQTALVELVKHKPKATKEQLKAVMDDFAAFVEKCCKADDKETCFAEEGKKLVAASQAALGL
Description: as §1, §2, §3, §4

[3] = target: T1, seronom (HSA preparation); experiment: Fraction bound in aqueous seronom by centrifree micropartition ultrafiltration and ICP [Gd]; type: in vitro ADME; conditions: centrifuged 500 xg 45 min, [Gd] by ICP
Procedure: After the measurement, the sample in aqueous seronom was placed in a centrifree micropartition device (Millipore, Beverly, Mass.). The device was centrifuged at 500 xg for 45 min in a fixed angle rotor (Beckman Model J2-21M, JA-20 rotor). The solution (0.5 mL) was taken from below the filter (unbound Gd-ligand) for [Gd] ICP measurement. The [Gd] of the uncentrifuged sample was also measured as a control. The Fraction Bound was calculated by the following equation: Fraction Bound=([Gd-ligand]control−[Gd-ligand]unbound)/[Gd-ligand]control. Table 1 details the results of the tests.

[4] = system: myocardial lesions induced by ischemia-reperfusion; conditions: rats; cited from earlier work

O=C(O)CN1CCN(CC(=O)O)CCN(CC(=O)NCC(=O)NC[C@@H](O)[C@@H]2OC(=O)C(O)=C2O)CCN(CC(=O)O)CC1 [Compound 22a, 1,4,7,10-tetraazacyclododecane-1,4,7-triacetic acid, 10-[2-[[2-[[(2R)-2-[(2S)-2,5-dihydro-3,4-dihydroxy-5-oxo-2-furanyl]-2-hydroxyethyl]amino]-2-oxoethyl]amino]2-oxoethyl]-, gadolinium salt]
Relaxivity in water r1Gd-ligand in water [1]: 4.83 mM⁻¹ s⁻¹
Relaxivity in aqueous seronom r1Gd-ligand in seronom [2]: 6.38 mM⁻¹ s⁻¹
increase in relaxivity in the presence of seronom [2]: 32%
fraction unbound [3]: 0.912

CCCCCCCCCCCCCCCCCCOC1=C(O)[C@@H]([C@@H](O)CO)OC1=O [2-O-octadecylascorbic acid]
inhibition of myocardial lesions induced by ischemia-reperfusion [4]: markedly inhibit

O=C(O)CN1CCN(CC(=O)O)CCN(CC(=O)NCC(=O)NCC2CCC(C(=O)NC[C@@H](O)[C@@H]3OC(=O)C(O)=C3O)CC2)CCN(CC(=O)O)CC1 (stereo partly drawn) [Compound 22b, 1,4,7,10-tetraazacyclododecane-1,4,7-triacetic acid, 10-[2-[[2-[[[4-[[[(2R)-2-[(2S)-2,5-dihydro-3,4-dihydroxy-5-oxo-2-furanyl]-2-hydroxyethyl]amino]carbonyl]cyclohexyl]methyl]amino]-2-oxoethyl]amino]2-oxoethyl]-, gadolinium salt]
Relaxivity in water r1Gd-ligand in water [1]: 7.20 mM⁻¹ s⁻¹
Relaxivity in aqueous seronom r1Gd-ligand in seronom [2]: 8.18 mM⁻¹ s⁻¹
increase in relaxivity in the presence of seronom [2]: 14%
fraction unbound [3]: 0.891
